Measured values from patent publication US5064946A, “Therapeutic nucleosides” (priority 1987, dated 1991).
pEC50: −log10 of the molar value.

Experiments:
Citro. freundii = assay: In vitro antibacterial activity (MIC), Citro. freundii; type: cell-based; settings: Citrobacter freundii; Wellcotest sensitivity Test Agar + 7% lysed horse blood
Entero. aerogenes = assay: In vitro antibacterial activity (MIC), Entero. aerogenes; type: cell-based, Enterobacter aerogenes; settings: Klebsiella aerogenes; Wellcotest sensitivity Test Agar + 7% lysed horse blood
Salmonella typhimurium = assay: In vitro antibacterial activity (MIC), Salmonella typhimurium; type: cell-based; settings: Salmonella enterica, Wellcotest sensitivity Test Agar + 7% lysed horse blood
E. coli CN314 = assay: In vitro antibacterial MIC and synergy studies against E. coli CN314; settings: Escherichia coli
HIV [1] = assay: AZT/Acyclovir combinations vs. HIV in vitro (protection); type: cell-based
[2] = tested on: Friend Leukemia Virus (FLV); assay: Anti-Friend Leukemia Virus plaque inhibition in FG-10 cells; type: cell-based; settings: dipyridamole 10 μM, dilazep 5 μM, each alone
HIV [3] = assay: Anti-HIV activity of 3'-azidonucleosides in vitro (T-cells); type: cell-based; settings: Human immunodeficiency virus 1; T-cells exposed to HIV, viable cell count; read-out: ED50 (the source's name)

| MIC (Citro. freundii) | MIC (Entero. aerogenes) | MIC (Salmonella typhimurium) | Compound | MIC (E. coli CN314) | also measured |
| --- | --- | --- | --- | --- | --- |
| 10 µg/mL | 10 µg/mL | 10 µg/mL | Cc1cn([C@H]2C[C@H](N=[N+]=[N-])[C@@H](CO)O2)c(OCc2ccccc2)nc1=O [Compound 6, 1-(3'-Azido-2',3'-dideoxy-β-D-erythro-pentofuranosyl)-2-(benzyloxo)-5-methyl-4-(1H)-pyrimidinone] |  |  |
|  |  |  | CC(=O)O[C@H]1C[C@@]2(C)[C@@H](C[C@@H](O)[C@H]3[C@@]4(C)CC[C@@H](O)[C@@H](C)[C@@H]4CC[C@@]32C)/C1=C(\CCC=C(C)C)C(=O)O [Fusidic acid] | 1000 µg/mL |  |
| 10 µg/mL | 10 µg/mL | 10 µg/mL | CC(=O)OC[C@H]1O[C@@H](n2cc(C)c(=S)[nH]c2=O)C[C@@H]1N=[N+]=[N-] [Compound 2, 3'-Azido-3'-deoxy-5'-O-acetyl-4-thiothymidine] |  |  |
|  |  |  | Nc1nc2c(ncn2COCCO)c(=O)[nH]1 [ACV, 9-(2-hydroxyethoxymethyl)guanine] |  | potentiation of the antiviral activity of AZT (HIV [1]): about 3 -fold; activity alone vs. HIV (HIV [1]; ACV alone): little activity; inhibition at 16 µg/mL (HIV [1]; Human immunodeficiency virus 1, T-cell, ACV alone, 16 μg/ml (highest tested)): < 30% |
|  |  |  | NC[C@H]1O[C@H](O[C@H]2[C@H](O)[C@@H](O[C@H]3O[C@H](CO)[C@@H](O)[C@H](N)[C@H]3O)[C@H](N)C[C@@H]2N)[C@H](N)C[C@@H]1O [Tobramycin] | 0.4 µg/mL |  |
|  |  |  | CC[C@H]1OC(=O)[C@H](C)[C@@H](O[C@H]2C[C@@](C)(OC)[C@@H](O)[C@H](C)O2)[C@H](C)[C@@H](O[C@@H]2O[C@H](C)C[C@H](N(C)C)[C@H]2O)[C@](C)(O)C[C@@H](C)C(=O)[C@H](C)[C@@H](O)[C@]1(C)O [Erythromycin] | 25 µg/mL |  |
|  |  |  | COc1cc(C(=O)OCCCN2CCCN(CCCOC(=O)c3cc(OC)c(OC)c(OC)c3)CC2)cc(OC)c1OC [dilazep] |  | observed antiviral effect alone [2]: Neither dipyridamole (10 μM) nor dilazep (5 μM) alone had any observed antiviral effect |
| 10 µg/mL | > 100 µg/mL | 10 µg/mL | Cc1cn([C@H]2C[C@H](N=[N+]=[N-])[C@@H](CO)O2)c(=S)[nH]c1=O [Compound 3, 3'-Azido-3'-deoxy-2-deoxy-2-thiothymidine] |  |  |
|  |  |  | O=C(N[C@H](CO)[C@H](O)c1ccc([N+](=O)[O-])cc1)C(Cl)Cl [Chloramphenicol] | 3.1 µg/mL |  |
|  |  |  | OCCN(CCO)c1nc(N2CCCCC2)c2nc(N(CCO)CCO)nc(N3CCCCC3)c2n1 [dipyridamole] |  | observed antiviral effect alone [2]: Neither dipyridamole (10 μM) nor dilazep (5 μM) alone had any observed antiviral effect |
|  |  |  | [N-]=[N+]=N[C@H]1C[C@H](n2cc(Br)c(N)nc2=O)O[C@@H]1CO [3'-Azido-5-bromo-2',3'-dideoxycytidine] |  | pEC50 (HIV [3]): 5.30 |
|  |  |  | [N-]=[N+]=N[C@H]1C[C@H](n2ccc(N)nc2=O)O[C@@H]1CO [3'-Azido-2',3'-dideoxycytidine] |  | pEC50 (HIV [3]): 5.00 |
| 10 µg/mL | 10 µg/mL | 10 µg/mL | COc1nc(=O)c(C)cn1[C@H]1C[C@H](N=[N+]=[N-])[C@@H](CO)O1 [Compound 7, 3'-Azido-3'-deoxy-2-methoxythymidine] |  |  |
| < 0.1 µg/mL | > 100 µg/mL | < 0.1 µg/mL | CC(=O)OC[C@H]1O[C@@H](n2cc(C)c(=O)n(C(=O)c3ccccc3)c2=O)C[C@@H]1N=[N+]=[N-] [Compound 4, 5'-Acetyl-3'-azido-3-benzoyl-3'-deoxythymidine] |  |  |
|  |  |  | CCC[C@@H]1C[C@@H](C(=O)N[C@@H]([C@H]2O[C@H](SC)[C@H](O)[C@@H](O)[C@H]2O)[C@H](C)Cl)N(C)C1 [Clindamycin] | 100 µg/mL |  |
|  |  |  | [N-]=[N+]=N[C@H]1C[C@H](n2cc(/C=C/C(=O)O)c(=O)[nH]c2=O)O[C@@H]1CO [(E)-3-[1-(3'-Azido-2',3'-dideoxy-β-D-erythro-pentofuranosyl)-1,2,3,4-tetrahydro-2,4-dioxo-5-pyrimidinyl]-2-propenoic Acid] |  | pEC50 (HIV [3]): 4.00 |
|  |  |  | CO[C@H]1/C=C/O[C@@]2(C)Oc3c(C)c(O)c4c(O)c(c(/C=N/N5CCN(C)CC5)c(O)c4c3C2=O)NC(=O)/C(C)=C\C=C\[C@H](C)[C@H](O)[C@@H](C)[C@@H](O)[C@@H](C)[C@H](OC(C)=O)[C@@H]1C [Rifampicin] | 6.2 µg/mL |  |
|  |  |  | Cc1cc(C)nc(NS(=O)(=O)c2ccc(N)cc2)n1 [Sulphadimidine] | 32 µg/mL |  |
| 10 µg/mL | < 0.1 µg/mL | < 0.1 µg/mL | Cc1cn([C@H]2C[C@H](N=[N+]=[N-])[C@@H](CO)O2)c(=O)[nH]c1=S [Compound 1, 3'-Azido-3'-deoxy-4-thiothymidine] |  |  |
| 10 µg/mL | 100 µg/mL | > 100 µg/mL | CC(=O)OC[C@H]1O[C@@H](n2cc(C)c(-n3cncn3)nc2=O)C[C@@H]1N=[N+]=[N-] [Compound 5, 1-(5'-O-Acetyl-3'-azido-2',3'-deoxy-β-D-erythro-pentofuranosyl)-5-methyl-4-(1,2,4-triazol-1-yl)-2(1H)-pyrimidinone] |  |  |

| Compound | MIC (Citro. freundii) | MIC (Entero. aerogenes) | MIC (Salmonella typhimurium) | MIC (E. coli CN314) | also measured |
| --- | --- | --- | --- | --- | --- |
| [N-]=[N+]=N[C@H]1C[C@H](n2cc(Br)c(=O)[nH]c2=O)O[C@@H]1CO [Compound 8, 3'-Azido-5-bromo-2',3'-dideoxyuridine] | > 100 µg/mL | > 100 µg/mL | > 100 µg/mL |  | pEC50 (HIV [3]): 5.30 |
| COc1cc(Cc2cnc(N)nc2N)cc(OC)c1OC [Trimethoprim, 2,4-diamino-5-(3',4',5'-trimethoxybenzyl) pyrimidine, reference compound] | 0.5 µg/mL | 0.5 µg/mL | 0.5 µg/mL | 0.125 µg/mL |  |
